Results: US20240124501A1, “VANADIUM COMPOUNDS AND METHODS OF MAKING AND USING THEREOF” (priority 2022, published 2024)
Values joined by “and” are separate entries in the source; they are usually repeats but may differ in a detail not shown here. Equal values may be shown once. Read-outs that look alike come from different tables or passages of the source.

How the values were obtained:
[1] = system: Mycobacterium smegmatis (M. smeg); test: Growth inhibition of M. smeg (MIC/IC50 measurement); format: cell-based, Mycobacterium smegmatis mc^2 155; settings: Mycolicibacterium smegmatis; M. smeg in 7H9 media, 24 h at 37° C., OD600; mean and SD of triplicate
Protocol: Cell Culture and Growth Conditions. M. smeg was cultured in Middlebrook 7H9 medium (Ref. no. 271310; Difco) supplemented with 10% OAD (oleic acid, albumin, dextrose), 0.2% (v/v) glycerol, and […], and incubated with shaking for 24 h at 37° C. M. smeg was grown to a mid-logarithmic growth phase assessed via spectrophotometry and occurred at an optical density of 0.6 at 600 nm (OD600). In some experiments where M. smeg was treated with vanadium complexes, the cell culture supernatant was collected for ^51V NMR studies.
Minimum Inhibitory Concentration (MIC) Measurements. The inhibitory activity of the tested compounds was determined by measuring the lowest concentration that caused bacterial growth inhibition of 50% (IC50). M. smeg was grown to the mid-log phase of 0.6-0.8 at OD600. The final concentrations of the compounds used in these studies were obtained using serial dilutions to a final concentration range of 2 to 0.0039 mM and placed with M. smeg in 7H9 media into a 96-well plate. Plates were incubated for 24 h at 37° C. A Bio-Rad Benchmark Reader (Bio-Rad Laboratories: Hercules, CA, USA) was used to check the cell viability at OD600 at appropriate times. IC50 was determined to be the lowest concentration of complexes that inhibited M. smeg growth by 50%.
Statistical Analysis. For each treatment, data were represented as the mean and standard deviation of the IC50 from triplicate measurements. The IC50 was calculated using GraFit 5 data analysis software (version 5.0.13). • Chemistry
Preparation of Stock Solutions for Cell Culture Experiments. A 20 mM stock solution of each respective V-complex and its free ligands was prepared in DMSO and diluted with 7H9 media to a concentration of 2.0 mM for biological studies.

[2] = system: T98 g cells (human glioblastoma multiforme); test: IC50 for 72 h treatments with fresh vanadium(V) compounds in T98 g cells (Example 7); format: cell-based; settings: 72 h treatment, each measurement reported, read-out: IC50 Value(s) (converted)
Protocol: (§1) Cell Culture and Growth Conditions. The well-established human glioblastoma multiforme cell line (T98 g) and human foreskin fibroblast (HFF-1) cell lines were purchased from American Type Culture Collection (ATCC, cat. no. CRL-1690 and SCRC-1041). Due to their limited life span in culture, HFF-1 cells were used at passages four to six. The cells were cultured in Advanced DMEM (Thermo Fisher Scientific cat. no. 12491-015), supplemented with L-glutamine (2.0 mM), antibiotic-antimycotic mixture (100 U mL^−1 penicillin, […] streptomycin, and […] amphotericin B), and fetal calf serum (FCS; heat-inactivated; 2% vol). For proliferation and cytotoxicity experiments, cells were seeded in 96-well plates at an initial density of 1.5×10^3 viable cells per well in 100 μL medium and left to attach overnight.
(§2) Freshly prepared stock solutions of V(V) complexes (10 mM in DMSO) were used for cell assays. […] Stock solutions of the treatment complexes were diluted with fully supplemented cell culture media to the required final concentrations, and the resultant media were either added to the cells within 1 min (fresh solutions) or left in cell culture incubator (310 K, 5% CO2) for 24 h prior to the cell treatments (aged solutions).
(§3) Each treatment included six replicate wells with cells and two background wells without cells that contained the same components. After the addition of treatment complexes, the plates were incubated for 72 h at 310 K and 5% CO2, then MTT reagent [1-(4,5-dimethylthiazol-2-yl)-3,5-diphenylformazan, Sigma M5655] was added (50 μL per well of freshly prepared 2.0 mg/mL solution in complete medium), and incubation was continued for 4-6 h. After that, the medium was removed, the blue formazan crystals were dissolved in 0.10 mL per well of DMSO, and the absorbance at 600 nm was measured using a Victor V3 plate reader. Typically, the treatment complexes were applied in a series of nine two-fold dilutions, starting from (100±20) M V, plus the vehicle control. Exact V concentrations in the assays were verified by ICP-MS measurements using samples of cell culture media and used in the calculations of the IC50 values. Fitting of the experimental data and calculations of the IC50 values were performed using Origin 6.1 software (Microcal Origin, 1999). For all the cell assays, consistent results were obtained in at least two independent experiments using different passages of cells and varying stock solutions of the treatment complexes.
In cases where multiple measurements were performed, the value determined for each measurement are reported.

[3] = system: HFF-1 (non-cancer human fibroblasts); test: Anti-proliferative activity, MTT assay, HFF-1 cells (Example 5)
[4] = system: HFF-1 (human foreskin fibroblasts); test: Cytotoxicity, MTT assay, HFF-1 cells (Example 4); format: cell-based; settings: 72 h treatment; mixed with medium ~1 min before treatment; read-out: IC50 HFF-1 (fresh)
Protocol: as §1, with “µL” for “μL”
Freshly prepared stock solutions of V(V) complexes (10 mM in DMSO) were used for cell assays. […]
Each treatment included six replicate wells with cells and two background wells without cells that contained the same components. […] After that, the medium was removed, the blue formazan crystals were dissolved in 0.10 mL per well of DMSO, and the absorbance at 600 nm was measured using a Victor V3 plate reader. […]

[5] = system: T98g cells (human glioblastoma multiforme); test: Antiproliferative activity, MTT assay, T98g cells (Example 4); format: cell-based; settings: 72 h treatment
Protocol: as §1, with “µL” for “μL”
as §2
as §3, with “(100±20) μM” for “(100±20) M”

T98g cells = test: V uptake by T98g cells (ICPMS); format: cell-based, human; settings: 30 min treatment with 100 μM of freshly diluted V complexes
Protocol: For V uptake experiments, T98 g cells were grown to ˜80% confluence in 12-well plates (three replicates per treatment). […] After that, V-containing media were removed, the cell layers were washed twice with phosphate buffered saline (PBS), detached with TrypLE solution (Thermo Fisher Scientific Cat. No. 12605028), pelleted, and washed again with PBS. Detachment and washing of cell pellets were used to remove V that was absorbed on the culture plates and on the cell surface. Cell numbers in each pellet were counted with a Countess automatic counter, typical numbers were (5±1)×10^5 cells/well, cell viability was >95% (Trypan blue staining). Cell pellets were digested with 0.20 mL of 65% HNO3 (trace pure, Merck 225711) for 3 d at 295 K, then diluted with Milli-Q water to 1.0 mL for ICPMS analysis. The analysis was performed with a Perkin-Elmer Nexion 350× spectrometer, using a standard V(IV) solution (Choice Analytical, Australia) and 193Ir peak as an internal standard. The measurements were performed in kinetic energy discrimination (KED) mode to eliminate the interference of [^35Cl^16O]^+ ions with the determination of ^51V^+. Cellular V concentrations were expressed in atoms V per cell. For all the cell assays, consistent results were obtained in at least two independent experiments, using different passages of cells and different stock solutions of the treatment compounds.

[6] = system: T98g (human glioblastoma cells); test: Anti-proliferative activity, MTT assay, T98g cells (Example 5); format: cell-based; settings: read-out: IC50 (T98g), condition (B)
[7] = complexes mixed with cell culture medium ~1 min (295K) before treatment, read-out: IC50 T98g (fresh)
[8] = pre-incubated with cell culture medium 24 h at 310K, 5% CO2, read-out: IC50 T98g (aged)

| SMILES | IC50 [1] [µM] | IC50 [2] | other results |
| --- | --- | --- | --- |
| Oc1ccccc1O [H2cat, catechol] | 109 ± 0.05 | – | – |
| COc1cccc(O)c1O [H23OMet, 3-methoxy catechol] | 262 ± 0.15 | – | – |
| CCOc1cccc2c1[O][V]1(=[O])([O]c3cc(C45CC6CC(CC(C6)C4)C5)cc(C45CC6CC(CC(C6)C4)C5)c3[O]1)[N](CCO)CCN=C2 | – | 3.3 ± 0.4 µM | – |
| CC(C)(C)c1cc2c(c(C34CC5CC(CC(C5)C3)C4)c1)[O][V]1(=[O])([O]c3ccccc3C=NCC[N]1CCO)[O]2 | – | 9.3 ± 2.1 µM | – |
| O=c1ccc2cc(O)c(O)cc2o1 [H2Coum, 6,7-dihydroxycoumarin] | 506 ± 0.28 | – | – |
| CCOc1cccc2c1[O][V]1(=[O])([O]c3cc(C45CC6CC(CC(C6)C4)C5)cc(C)c3[O]1)[N](CCO)CCN=C2 | – | 14 ± 2 µM | – |
| CC(C)(C)c1cc2c(c(C(C)(C)C)c1)[O][V]1(=[O])([O]c3cc4ccc(=O)oc4cc3[O]1)[N](CCO)CCN=C2 | – | 4.2 µM and 6.9 µM | – |
| [Na+].[Na+].[Na+].[O]=[V]([O-])([O-])[O-] [Na3VO4] | – | – | viability of HFF-1 cells compared with the vehicle control ([3]; subtoxic concentrations, not seen in T98g): 120-140%; IC50 [4]: 23 ± 3 µM; IC50 [5, 7]: ~40 µM and 26 µM; IC50 [5, 8]: 24 ± 4 µM; Uptake (T98g) of V (T98g cells): (3.3 ± 0.8) × 10^7 atoms per cell |
| CC(C)(C)c1cc2c(c(C34CC5CC(CC(C5)C3)C4)c1)[O][V]1(=[O])([O]c3ccc(Cl)cc3C=NCC[N]1CCO)[O]2 | – | 3.4 ± 0.2 µM | – |
| CCOc1cccc2c1[O][V]1(=[O])([O]c3cc(C(C)(C)C)cc(C(C)(C)C)c3[O]1)[N](CCO)CCN=C2 | – | 2.4 ± 0.3 µM | – |
| Oc1c(O)c(Br)c(Br)c(Br)c1Br [H2tbc, tetrabromocatechol] | 416 ± 0.19 | – | – |
| [O]=[V]12([O]c3ccc(Cl)cc3C=NCC[N]1CCO)[O]c1cc(C34CC5CC(CC(C5)C3)C4)cc(C34CC5CC(CC(C5)C3)C4)c1[O]2 | – | 11 ± 1 µM | – |
| N.N.[Cl][Pt][Cl] [cisplatin] | – | – | IC50 [4]: 45 ± 4 µM; IC50 [5, 7]: 33 ± 1 µM; IC50 [5, 8]: > 50 µM |
| N#Cc1ccc(O)c(O)c1 [H2CN, 3,4-dihydroxybenzonitrile] | 447 ± 0.04 | – | – |
| CC(C)(C)c1cc(O)c(O)c(C(C)(C)C)c1 [H2dtb, 3,5-di-tert-butylcatechol] | 241 ± 0.07 | – | IC50 ([3]; Homo sapiens, HFF-1, read-out: IC50 (HFF-1), condition (B)): 24 ± 2 µM; IC50 [6]: 15 ± 3 µM |
| O=[N+]([O-])c1ccc(O)c(O)c1 [H24NO2, 4-nitrocatechol] | 610 ± 0.05 | – | – |
| CCOc1cccc2c1[O][V]1(=[O])([O]c3cc(C45CC6CC(CC(C6)C4)C5)cc(C(C)(C)C)c3[O]1)[N](CCO)CCN=C2 | – | 2.1 ± 0.3 µM | – |
| CC(C)(C)c1cccc2c1[O][V]1(=[O])([O]c3cc(C45CC6CC(CC(C6)C4)C5)cc(C45CC6CC(CC(C6)C4)C5)c3[O]1)[N](CCO)CCN=C2 | – | 5.3 ± 1.6 µM | – |
